Assay results as given in ChEMBL document CHEMBL1145768, “Microsomal triglyceride transfer protein inhibitors: discovery and synthesis of alkyl phosphonates as potent MTP inhibitors and cholesterol lowering agents” (Bioorg Med Chem Lett, 2003).
The source made the active and inactive calls. The rule behind the calls is not given here.

Tests used:
[1] = biological target: T1, Microsomal triglyceride transfer protein large subunit (Bos taurus, UniProt P55156); assay: Inhibitory activity against microsomal triglyceride transfer protein (MTP)
T1 sequence (P55156 whole entry): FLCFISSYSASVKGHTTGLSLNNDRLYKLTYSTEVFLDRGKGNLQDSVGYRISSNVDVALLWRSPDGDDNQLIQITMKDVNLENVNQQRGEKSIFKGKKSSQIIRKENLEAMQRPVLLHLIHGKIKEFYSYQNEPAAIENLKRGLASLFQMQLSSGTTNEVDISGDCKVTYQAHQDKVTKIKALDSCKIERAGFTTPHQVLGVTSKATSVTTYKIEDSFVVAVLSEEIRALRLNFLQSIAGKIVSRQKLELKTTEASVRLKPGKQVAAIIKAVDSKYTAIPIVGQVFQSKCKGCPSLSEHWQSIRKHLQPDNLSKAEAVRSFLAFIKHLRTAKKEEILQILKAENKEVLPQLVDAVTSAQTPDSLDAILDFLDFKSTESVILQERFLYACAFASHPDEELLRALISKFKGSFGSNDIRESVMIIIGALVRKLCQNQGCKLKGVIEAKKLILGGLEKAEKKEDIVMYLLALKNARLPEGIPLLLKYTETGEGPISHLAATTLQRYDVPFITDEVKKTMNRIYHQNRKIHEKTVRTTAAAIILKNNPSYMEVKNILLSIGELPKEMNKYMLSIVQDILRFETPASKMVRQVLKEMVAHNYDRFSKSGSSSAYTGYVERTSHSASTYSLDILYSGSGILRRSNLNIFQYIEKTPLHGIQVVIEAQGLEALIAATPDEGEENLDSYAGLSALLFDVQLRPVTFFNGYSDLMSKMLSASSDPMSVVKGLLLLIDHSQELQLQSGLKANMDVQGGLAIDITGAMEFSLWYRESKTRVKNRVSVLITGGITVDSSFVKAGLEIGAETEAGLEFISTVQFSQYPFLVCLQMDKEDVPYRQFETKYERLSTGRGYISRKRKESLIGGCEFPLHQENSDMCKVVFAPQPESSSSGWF

[2] = tested on: Cricetinae gen. sp.; assay: Inhibitory activity against plasma cholesterol level after oral administration (15 mg/kg/day) in hamsters; type: functional, Cricetulus griseus
[3] = tested on: HepG2; assay: Effective concentration against apolipoprotein A1 (ApoA1) from HepG2 cell using apolipoprotein secretion assay; type: functional, cell-based; conditions: Homo sapiens
[4] = tested on: HepG2; assay: Effective concentration against apolipoprotein B (ApoB) from HepG2 cell using apolipoprotein secretion assay; type: functional, cell-based; conditions: Homo sapiens
[5] = tested on: HepG2; assay: Effective concentration against secretion of apolipoprotein A1 (ApoA1) from HepG2 cell using apolipoprotein secretion assay; type: functional, cell-based; conditions: Homo sapiens
[6] = tested on: HepG2; assay: Effective concentration against secretion of apolipoprotein B (ApoB) from HepG2 cell using apolipoprotein secretion assay; type: functional, cell-based; conditions: Homo sapiens
[7] = tested on: Rattus norvegicus; assay: Inhibitory activity (25 mg/kg) against hepatic lipoprotein secretion; type: functional
[8] = tested on: Rattus norvegicus; assay: Effective dose for inhibition of lipoprotein production (in vivo) after oral administration using fasted triton rat assay; type: functional
[9] = tested on: Rattus norvegicus; assay: Effective dose for inhibition of lipoprotein production (in vivo) after intravenous administration using fasted triton rat assay; type: functional
[10] = tested on: Cricetinae gen. sp.; assay: Inhibitory activity against plasma cholesterol level after oral administration (qd) (100 mg/kg) for 3 days in hamsters; type: functional, Cricetulus griseus
[11] = tested on: Cricetinae gen. sp.; assay: Inhibitory activity against plasma cholesterol level after oral administration (15 mg/kg/day) over 3 days in hamsters; type: functional, Cricetulus griseus
[12] = tested on: Rattus norvegicus; assay: Ability to inhibit lipoprotein production (in vivo) after oral administration (50 mg/kg) using fasted triton rat assay;IA: inactive; type: functional, organism-based

Compound	IC50 [1]	further results
CCCCOP(=O)(CCCCC1(C(=O)NCCN2CCOCC2)c2ccccc2-c2ccccc21)OCCCC	500 nM	–
CCCCOP(=O)(CCCOc1cccc2ccccc12)OCCCC	30000 nM	–
CCCCOP(=O)(CCCSc1nc(-c2ccccc2)c(-c2ccccc2)o1)OCCCC	6000 nM	–
CCCCOP(=O)(CCCSc1ccncc1)OCCCC	27000 nM	–
CCCCOP(=O)(CCCSc1nc2ccc(OCC)cc2n1C)OCCCC	6000 nM	–
CCCCOP(=O)(CCCSc1nc2cc(OCC)ccc2[nH]1)OCCCC	10000 nM	–
C=CCC1(C(=O)NCC)c2ccccc2-c2ccccc21	2200 nM	–
CCCCOP(=O)(CCCCC1(C(=O)NCc2ccc(N)cc2)c2ccccc2-c2ccccc21)OCCCC	890 nM	–
CCCCOP(=O)(CCCSc1nc2ccc(OCC)cc2s1)OCCCC	4500 nM	EC50 [3]: 13200 nM; EC50 [4]: 3900 nM
CCCCOP(=O)(CCCSc1nc2ccc(OCC)cc2o1)OCCCC	5000 nM	–
CCCCOP(=O)(CCCCCSc1nc2ccc(OCC)cc2s1)OCCCC	6000 nM	–
CCCCOP(=O)(CCCSc1nc(-c2ccccc2)c(-c2ccccc2)[nH]1)OCCCC	> 30000 nM	–
CCCCOP(=O)(CCCOc1ccccc1)OCCCC	4800 nM	–
CCCCOP(=O)(CCCCC1(C(=O)NCc2ccccn2)c2ccccc2-c2ccccc21)OCCCC	470 nM	–
O=C1c2ccccc2CN1C1CCN(CCC(c2ccccc2)c2ccccc2)CC1	2200 nM	–
CCCCOP(=O)(CCCCSc1nc2ccc(OCC)cc2s1)OCCCC	12000 nM	–
CCCCOP(=O)(CCCSc1cccs1)OCCCC	> 100000 nM	–

The next compounds have a lower IC50 [1] than those just listed; values first:

IC50 [1]	Compound	further results
40 nM	O=C(NCC(F)(F)F)C1(CCCCP(=O)(OCCc2ccccn2)OCCc2ccccn2)c2ccccc2-c2ccccc21	–
25 nM	O=C(NCC(F)(F)F)C1(CCCCP(=O)(OCCCc2ccccn2)OCCCc2ccccn2)c2ccccc2-c2ccccc21	Inhibition [2]: 15%
90 nM	CCCOP(=O)(CCCCC1(C(=O)NCC(F)(F)F)c2ccccc2-c2ccccc21)OCCC	–
230 nM	O=C(NC1CCN(CCCC2(C(=O)NCC(F)(F)F)c3ccccc3-c3ccccc32)CC1)c1ccccc1	EC50 [3]: > 3300 nM; EC50 [4]: 80 nM
24 nM	O=C(NCC(F)(F)F)C1(CCCCP(=O)(OCc2cccnc2)OCc2cccnc2)c2ccccc2-c2ccccc21	–
250 nM	CCCCOP(=O)(CCCCC1(C(=O)NCc2ccccc2)c2ccccc2-c2ccccc21)OCCCC	EC50 [5]: > 1000 nM; EC50 [6]: 58 nM
450 nM	CCCCOP(=O)(CCCCC1(C(=O)OC)c2ccccc2-c2ccccc21)OCCCC	–
135 nM	CCCNC(=O)C1(CCCCP(=O)(OCC)OCC)c2ccccc2-c2ccccc21	–
21 nM	CCCCOP(=O)(CCCCC1(C(=O)NCCc2ccc(OC)cc2)c2ccccc2-c2ccccc21)OCCCC	Inhibition [7]: 15%; EC50 [5]: > 330 nM; EC50 [6]: 23 nM
85 nM	O=C(NCC(F)(F)F)C1(CCCCP(=O)(OCc2ccncc2)OCc2ccncc2)c2ccccc2-c2ccccc21	–
22 nM	CCCCOP(=O)(CCCCC1(C(=O)NCC(F)(F)F)c2ccccc2-c2ccccc21)OCCCC	ED30 [8]: 8 mg/kg; ED30 [9]: 4 mg/kg; Inhibition [10]: 15%; EC50 [5]: > 3300 nM; EC50 [6]: 7 nM
145 nM	CCOP(=O)(CCCCC1(C(=O)NCC(F)(F)F)c2ccccc2-c2ccccc21)OCC	–
55 nM	CC(C)COP(=O)(CCCCC1(C(=O)NCC(F)(F)F)c2ccccc2-c2ccccc21)OCC(C)C	–
65 nM	CCCCOP(=O)(CCCCCC1(C(=O)NCC(F)(F)F)c2ccccc2-c2ccccc21)OCCCC	–
45 nM	CCCCOP(=O)(CCCCCCC1(C(=O)NCC(F)(F)F)c2ccccc2-c2ccccc21)OCCCC	–
27 nM	O=C(NCC(F)(F)F)C1(CCCCP(=O)(OCc2ccccn2)OCc2ccccn2)c2ccccc2-c2ccccc21	–
33 nM	CC(C)(C)COP(=O)(CCCCC1(C(=O)NCC(F)(F)F)c2ccccc2-c2ccccc21)OCC(C)(C)C	–
400 nM	CCCCNC(=O)C1(CCCCP(=O)(OCCCC)OCCCC)c2ccccc2-c2ccccc21	–
11 nM	Cc1cccc(COP(=O)(CCCCC2(C(=O)NCC(F)(F)F)c3ccccc3-c3ccccc32)OCc2cccc(C)n2)n1	Inhibition [11]: 35%
14 nM	CCCCOP(=O)(CCCCC1(C(=O)NCCC)c2ccccc2-c2ccccc21)OCCCC	Activity [12]: inactive; ED30 [9]: 15 mg/kg; EC50 [5]: 8000 nM; EC50 [6]: 100 nM
280 nM	CC(C)OP(=O)(CCCCC1(C(=O)NCC(F)(F)F)c2ccccc2-c2ccccc21)OC(C)C	–
45 nM	Cc1cccc(CCCOP(=O)(CCCCC2(C(=O)NCC(F)(F)F)c3ccccc3-c3ccccc32)OCCCc2cccc(C)n2)n1	–
